According to PubChem BioAssay (NCI):
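Assay format: 96-well plates, 48-hour exposure. Here, GI50 denotes the concentration required for 50% inhibition of growth. TGI marks complete inhibition of growth.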

Tests used:
Assay in all cases: inhibition of tumour cell growth, NCI panel, 48 h
UACC-62 melanoma = system: UACC-62 melanoma
T-47D breast = system: T-47D breast
SN12C renal = system: SN12C renal
MCF7 breast = system: MCF7 breast
UO-31 renal = system: UO-31 renal
CAKI-1 renal = system: CAKI-1 renal
K-562 leukemia = system: K-562 leukemia
SW-620 colon = system: SW-620 colon
TK-10 renal = system: TK-10 renal
SR leukemia = system: SR leukemia
HOP-92 NSCLC = system: HOP-92 NSCLC
MDA-MB-231 breast = system: MDA-MB-231 breast
HCT-116 colon = system: HCT-116 colon
786-0 renal = system: 786-0 renal
BT-549 breast = system: BT-549 breast
HOP-62 NSCLC = system: HOP-62 NSCLC
HT29 colon = system: HT29 colon
M14 melanoma = system: M14 melanoma
OVCAR-5 ovarian = system: OVCAR-5 ovarian
RXF 393 renal = system: RXF 393 renal
EKVX NSCLC = system: EKVX NSCLC
RPMI-8226 leukemia = system: RPMI-8226 leukemia
HCC-2998 colon = system: HCC-2998 colon
SK-MEL-5 melanoma = system: SK-MEL-5 melanoma
UACC-257 melanoma = system: UACC-257 melanoma
NCI/ADR-RES ovarian = system: NCI/ADR-RES ovarian
SK-MEL-28 melanoma = system: SK-MEL-28 melanoma
HL-60(TB) leukemia = system: HL-60(TB) leukemia
LOX IMVI melanoma = system: LOX IMVI melanoma
A549 NSCLC = system: A549 NSCLC
MDA-MB-435 = system: MDA-MB-435
U251 CNS = system: U251 CNS
A498 renal = system: A498 renal
NCI-H522 lung = system: NCI-H522 lung
SF-295 CNS = system: SF-295 CNS
HS 578T breast = system: HS 578T breast
CCRF-CEM leukemia = system: CCRF-CEM leukemia
MOLT-4 leukemia = system: MOLT-4 leukemia
SNB-19 CNS = system: SNB-19 CNS
PC-3 prostate = system: PC-3 prostate
SNB-75 CNS = system: SNB-75 CNS
OVCAR-8 ovarian = system: OVCAR-8 ovarian
NCI-H460 lung = system: NCI-H460 lung
COLO 205 colon = system: COLO 205 colon
SK-MEL-2 melanoma = system: SK-MEL-2 melanoma
ACHN renal = system: ACHN renal
SF-268 CNS = system: SF-268 CNS
NCI-H23 lung = system: NCI-H23 lung
HCT-15 colon = system: HCT-15 colon
SK-OV-3 ovarian = system: SK-OV-3 ovarian
KM12 colon = system: KM12 colon
OVCAR-4 ovarian = system: OVCAR-4 ovarian
DU-145 prostate = system: DU-145 prostate
NCI-H226 lung = system: NCI-H226 lung
OVCAR-3 ovarian = system: OVCAR-3 ovarian
SF-539 CNS = system: SF-539 CNS
IGROV1 ovarian = system: IGROV1 ovarian
MALME-3M melanoma = system: MALME-3M melanoma

Nc1nc(-c2cccc([N+](=O)[O-])c2)c(N=Nc2ccc([N+](=O)[O-])cc2Cl)s1
GI50 (UACC-62 melanoma): 144 nM
TGI (UACC-62 melanoma): 1620 nM
GI50 (T-47D breast): 67.1 nM
TGI (T-47D breast): 771 nM
GI50 (SN12C renal): 261 nM
TGI (SN12C renal): 4570 nM
GI50 (MCF7 breast): 192 nM
TGI (MCF7 breast): 1360 nM
GI50 (UO-31 renal): 236 nM
TGI (UO-31 renal): 1380 nM
GI50 (CAKI-1 renal): 204 nM
TGI (CAKI-1 renal): 1700 nM
GI50 (K-562 leukemia): 151 nM
TGI (K-562 leukemia): 4990 nM
GI50 (SW-620 colon): 325 nM
TGI (SW-620 colon): 5460 nM
GI50 (TK-10 renal): 573 nM
TGI (TK-10 renal): 8870 nM
GI50 (SR leukemia): 293 nM
TGI (SR leukemia): 2940 nM
GI50 (HOP-92 NSCLC): 48.6 nM
TGI (HOP-92 NSCLC): 418 nM
GI50 (MDA-MB-231 breast): 289 nM
TGI (MDA-MB-231 breast): 1780 nM
GI50 (HCT-116 colon): 231 nM
TGI (HCT-116 colon): 1230 nM
GI50 (786-0 renal): 351 nM
TGI (786-0 renal): 7210 nM
GI50 (BT-549 breast): 206 nM
TGI (BT-549 breast): 842 nM
GI50 (HOP-62 NSCLC): 312 nM
TGI (HOP-62 NSCLC): 1700 nM
GI50 (HT29 colon): 342 nM
TGI (HT29 colon): 4380 nM
GI50 (M14 melanoma): 377 nM
TGI (M14 melanoma): 6750 nM
GI50 (OVCAR-5 ovarian): 535 nM
TGI (OVCAR-5 ovarian): 36400 nM
GI50 (RXF 393 renal): 251 nM
TGI (RXF 393 renal): 704 nM
GI50 (EKVX NSCLC): 260 nM
TGI (EKVX NSCLC): 4200 nM
GI50 (RPMI-8226 leukemia): 99.6 nM
GI50 (HCC-2998 colon): 309 nM
TGI (HCC-2998 colon): 7420 nM
GI50 (SK-MEL-5 melanoma): 87.7 nM
TGI (SK-MEL-5 melanoma): 286 nM
GI50 (UACC-257 melanoma): 133 nM
TGI (UACC-257 melanoma): 1370 nM
GI50 (NCI/ADR-RES ovarian): 254 nM
TGI (NCI/ADR-RES ovarian): 2050 nM
GI50 (SK-MEL-28 melanoma): 336 nM
TGI (SK-MEL-28 melanoma): 8140 nM
GI50 (HL-60(TB) leukemia): 254 nM
TGI (HL-60(TB) leukemia): 1130 nM
GI50 (LOX IMVI melanoma): 317 nM
TGI (LOX IMVI melanoma): 4610 nM
GI50 (A549 NSCLC): 354 nM
TGI (A549 NSCLC): > 34900 nM
GI50 (MDA-MB-435): 291 nM
TGI (MDA-MB-435): 3650 nM
GI50 (U251 CNS): 213 nM
TGI (U251 CNS): 1320 nM
GI50 (A498 renal): 270 nM
TGI (A498 renal): 737 nM
GI50 (NCI-H522 lung): 119 nM
TGI (NCI-H522 lung): 2490 nM
GI50 (SF-295 CNS): 261 nM
TGI (SF-295 CNS): 1110 nM
GI50 (HS 578T breast): 239 nM
TGI (HS 578T breast): 1210 nM
GI50 (CCRF-CEM leukemia): 310 nM
TGI (CCRF-CEM leukemia): 9120 nM
GI50 (MOLT-4 leukemia): 266 nM
TGI (MOLT-4 leukemia): 2580 nM
GI50 (SNB-19 CNS): 311 nM
TGI (SNB-19 CNS): 20800 nM
GI50 (PC-3 prostate): 244 nM
TGI (PC-3 prostate): 7390 nM
GI50 (SNB-75 CNS): 171 nM
TGI (SNB-75 CNS): 2280 nM
GI50 (OVCAR-8 ovarian): 308 nM
TGI (OVCAR-8 ovarian): 4460 nM
GI50 (NCI-H460 lung): 243 nM
TGI (NCI-H460 lung): 1260 nM
GI50 (COLO 205 colon): 342 nM
TGI (COLO 205 colon): 1290 nM
GI50 (SK-MEL-2 melanoma): 86 nM
TGI (SK-MEL-2 melanoma): 401 nM
GI50 (ACHN renal): 287 nM
TGI (ACHN renal): 11300 nM
GI50 (SF-268 CNS): 310 nM
TGI (SF-268 CNS): > 41400 nM
GI50 (NCI-H23 lung): 168 nM
TGI (NCI-H23 lung): 786 nM
GI50 (HCT-15 colon): 193 nM
TGI (HCT-15 colon): 2000 nM
GI50 (SK-OV-3 ovarian): 160 nM
TGI (SK-OV-3 ovarian): 1000 nM
GI50 (KM12 colon): 272 nM
TGI (KM12 colon): 3730 nM
GI50 (OVCAR-4 ovarian): 274 nM
TGI (OVCAR-4 ovarian): > 67400 nM
GI50 (DU-145 prostate): 383 nM
TGI (DU-145 prostate): > 49900 nM
GI50 (NCI-H226 lung): 196 nM
TGI (NCI-H226 lung): 816 nM
GI50 (OVCAR-3 ovarian): 245 nM
TGI (OVCAR-3 ovarian): 12900 nM
GI50 (SF-539 CNS): 344 nM
TGI (SF-539 CNS): 10400 nM
GI50 (IGROV1 ovarian): 446 nM
TGI (IGROV1 ovarian): 18500 nM
GI50 (MALME-3M melanoma): 172 nM
TGI (MALME-3M melanoma): 739 nM
